Values after ≈ are worked out from the molar mass of the structure shown.
Assays:
[1] = system: Mycobacterium tuberculosis; test: Antimycobacterial activity against isoniazid-resistant Mycobacterium tuberculosis after 14 days by broth microdilution method; format: functional; details: 336 h
[2] = system: Mycobacterium tuberculosis; test: Antimycobacterial activity against isoniazid-resistant Mycobacterium tuberculosis after 21 days by broth microdilution method; format: functional; details: 504 h

Row | SMILES | MIC [1] | MIC [2]
1 | Cc1nc2sc3c(c2c(=O)n1/N=C/c1ccc(C#N)cc1)CCN(Cc1ccccc1)C3 | 20 µM (≈ 8.79 µg/mL) | 20 µM (≈ 8.79 µg/mL)
2 | N#Cc1ccc(/C=N/n2cnc3sc4c(c3c2=O)CCN(Cc2ccccc2)C4)cc1 | 9 µM (≈ 3.83 µg/mL) | 9 µM (≈ 3.83 µg/mL)
3 | O=c1c2c3c(sc2ncn1/N=C/c1ccc(Cl)cc1)CN(Cc1ccccc1)CC3 | 20 µM (≈ 8.7 µg/mL) | 20 µM (≈ 8.7 µg/mL)
4 | Cc1nc2sc3c(c2c(=O)n1/N=C/c1ccc(Cl)cc1)CCN(Cc1ccccc1)C3 | 8 µM (≈ 3.59 µg/mL) | 8 µM (≈ 3.59 µg/mL)
5 | COc1ccc(/C=N/n2cnc3sc4c(c3c2=O)CCN(Cc2ccccc2)C4)cc1 | 20 µM (≈ 8.61 µg/mL) | 20 µM (≈ 8.61 µg/mL)
6 | O=c1c2c3c(sc2ncn1/N=C/c1cccs1)CN(Cc1ccccc1)CC3 | 22 µM (≈ 8.94 µg/mL) | 22 µM (≈ 8.94 µg/mL)
7 | CC[C@@H](CO)NCCN[C@@H](CC)CO [ETHAMBUTOL] | 4 µM (≈ 0.817 µg/mL) | 4 µM (≈ 0.817 µg/mL)
8 | NNC(=O)c1ccncc1 [ISONIAZID] | > 8 µM | > 8 µM
9 | CO[C@H]1/C=C/O[C@@]2(C)Oc3c(C)c(O)c4c(O)c(c(/C=N/N5CCN(C)CC5)c(O)c4c3C2=O)NC(=O)/C(C)=C\C=C\[C@H](C)[C@H](O)[C@@H](C)[C@@H](O)[C@@H](C)[C@H](OC(C)=O)[C@@H]1C [RIFAMPIN] | 2 µM (≈ 1.65 µg/mL) | 2 µM (≈ 1.65 µg/mL)
10 | CN[C@@H]1[C@H](O[C@H]2[C@H](O[C@H]3[C@H](O)[C@@H](O)[C@H](N=C(N)N)[C@@H](O)[C@@H]3N=C(N)N)O[C@@H](C)[C@]2(O)C=O)O[C@@H](CO)[C@H](O)[C@H]1O [STREPTOMYCIN] | 2 µM (≈ 1.16 µg/mL) | 2 µM (≈ 1.16 µg/mL)

— ChEMBL document CHEMBL3751688, “Synthesis, in vitro antimycobacterial evaluation and docking studies of some new 5,6,7,8-tetrahydropyrido[4',3':4,5]thieno[2,3-d]pyrimidin-4(3H)-one schiff bases” (Bioorg Med Chem Lett, 2016)
